Measurements from US6355799B1, “Substituted benzene compounds, process for their preparation, and herbicidal and defoliant compositions containing them” (ISK Americas Incorporated, priority 1997, dated 2002).

Experiments:
Type in all cases: in vivo
[1] = test system: upland rice (Oryza sp., var. Tebonnet, RICE); test: Pre-emerge test, crop safety; conditions: crop damage rating 0-100, 14 days after application
Procedure, shortened: (§1)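 Visual ratings on a 0-100 scale (0 no damage, 100 all plants dead) were taken at 14 days after treatment. Rates of 15-1000 g ai/ha in acetone, 187 l/ha, were sprayed onto soil one day after planting (pre-emerge) or onto 2-3 leaf plants with 0.25% v/v surfactant (post-emerge).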

[2] = test system: field corn (Zea mays L., var. Dekalb 535, CORN); test: Pre-emerge test, crop safety; conditions: crop damage rating 0-100, 14 days after application
Procedure, shortened: as §1

[3] = test system: upland rice (Oryza sp., var. Tebonnet, RICE); test: Post-emerge test, crop safety; conditions: post-emerge, 14 days after application, rating scale 0-100
Procedure, shortened: (§2)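 Each test used a mechanized track sprayer delivering 187 l/ha of acetone solution at 15–1000 g ai/ha. Post-emerge foliage at 2–3 leaves was treated with added 0.25% v/v non-ionic surfactant and bottom-watered only. Injury was assessed on day 14, where 100 means total kill.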

[4] = test system: field corn (Zea mays L., var. Dekalb 535, CORN); test: Post-emerge test, crop safety; conditions: post-emerge, 14 days after application, rating scale 0-100
Procedure, shortened: as §2

[5] = test system: ivyleaf morningglory (Ipomoea hederacea, IPOHE); test: Pre-emerge test, greenhouse herbicide activity screening; conditions: phytotoxicity rating 0-100, 14 days after application
Procedure, shortened: (§3)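 Plants grown in 10 cm pots of sandy loam mix received acetone-dissolved compounds through a moving flat-fan nozzle. Doses ranged from 15 to 1000 g ai/ha. Pre-emerge pots were seeded one day earlier, post-emerge pots 8–21 days earlier. Fourteen days on, each pot was graded 0–100 for damage.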

[6] = test system: lambsquarters (Chenopodium album, CHEAL); test: as above; conditions: phytotoxicity rating 0-100, 14 days after application
Procedure, shortened: as §3

[7] = test system: large crabgrass (Digitaria sanguinalis, DIGSA); test: as above; conditions: phytotoxicity rating 0-100, 14 days after application
Procedure, shortened: as §3

[8] = test system: sicklepod (Cassia obtusifolia, CASOB); test: as above; conditions: phytotoxicity rating 0-100, 14 days after application
Procedure, shortened: as §3

[9] = test system: green foxtail (Setaria viridis, SETVI); test: as above; conditions: phytotoxicity rating 0-100, 14 days after application
Procedure, shortened: as §3

[10] = test system: barnyardgrass (Echinochloa crus-galli, ECHCG); test: as above; conditions: phytotoxicity rating 0-100, 14 days after application
Procedure, shortened: as §3

[11] = test system: johnsongrass (Sorghum halepense, SORHA); test: as above; conditions: phytotoxicity rating 0-100, 14 days after application
Procedure, shortened: as §3

[12] = test system: velvetleaf (Abutilon theophrasti, ABUTH); test: as above; conditions: phytotoxicity rating 0-100, 14 days after application
Procedure, shortened: as §3

[13] = test system: redroot pigweed (Amaranthus retroflexus, AMARE); test: Post-emerge test, greenhouse herbicide activity screening; conditions: post-emerge, 14 days after application
Procedure, shortened: (§4)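 Rating: 0–100 visual injury, 14 DAA. Application: acetone, 187 l/ha, 15–1000 g ai/ha, flat-fan track sprayer with nozzle 40–45 cm above soil or canopy. Post-emerge runs used 0.25% v/v surfactant on 2–3 leaf plants.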

[14] = test system: ivyleaf morningglory (Ipomoea hederacea, IPOHE); test: as above; conditions: post-emerge, 14 days after application, rating scale 0-100
Procedure, shortened: as §4

[15] = test system: lambsquarters (Chenopodium album, CHEAL); test: as above; conditions: post-emerge, 14 days after application, rating scale 0-100
Procedure, shortened: as §4

[16] = test system: large crabgrass (Digitaria sanguinalis, DIGSA); test: as above; conditions: post-emerge, 14 days after application, rating scale 0-100
Procedure, shortened: as §4

[17] = test system: sicklepod (Cassia obtusifolia, CASOB); test: as above; conditions: post-emerge, 14 days after application, rating scale 0-100
Procedure, shortened: as §4

[18] = test system: green foxtail (Setaria viridis, SETVI); test: as above; conditions: post-emerge, 14 days after application, rating scale 0-100
Procedure, shortened: as §4

[19] = test system: barnyardgrass (Echinochloa crus-galli, ECHCG); test: as above; conditions: post-emerge, 14 days after application, rating scale 0-100
Procedure, shortened: as §4

[20] = test system: johnsongrass (Sorghum halepense, SORHA); test: as above; conditions: post-emerge, 14 days after application, rating scale 0-100
Procedure, shortened: as §4

[21] = test system: velvetleaf (Abutilon theophrasti, ABUTH); test: as above; conditions: post-emerge, 14 days after application, rating scale 0-100
Procedure, shortened: as §4

[22] = test system: redroot pigweed (Amaranthus retroflexus, AMARE); test: Pre-emerge test, greenhouse herbicide activity screening; conditions: phytotoxicity rating 0-100, 14 days after application
Procedure, shortened: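 Herbicidal damage is scored 0 (none) to 100 (complete plant death) two weeks after a simulated field spray. Rates span 15–1000 g ai/ha, delivered in acetone at 187 l/ha. For post-emergence treatments, plants have 2–3 leaves and the spray carries 0.25% v/v non-ionic surfactant.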

COc1c(Cl)cc(F)c(-n2c(=O)cc(C(F)(F)F)n(C)c2=O)c1NC(=O)OCc1ccc2ccccc2c1 [4-28]
Pre-emerge Herbicidal Activity RICE ([1]; 63 g ai/ha): 0 | Pre-emerge Herbicidal Activity RICE ([1]; 250 g ai/ha): 15 | Pre-emerge Herbicidal Activity CORN ([2]; 63 g ai/ha): 0 | Pre-emerge Herbicidal Activity CORN ([2]; 250 g ai/ha): 0 | phytotoxicity rating RICE (crop damage) ([3]; 63 g ai/ha): 10 | phytotoxicity rating RICE (crop damage) ([3]; 250 g ai/ha): 15 | phytotoxicity rating CORN (crop damage) ([4]; 63 g ai/ha): 0 | phytotoxicity rating CORN (crop damage) ([4]; 250 g ai/ha): 5 | Pre-emerge Herbicidal Activity IPOHE ([5]; 63 g ai/ha): 0 | Pre-emerge Herbicidal Activity IPOHE ([5]; 250 g ai/ha): 0 | Pre-emerge Herbicidal Activity CHEAL ([6]; 63 g ai/ha): 70 | Pre-emerge Herbicidal Activity CHEAL ([6]; 250 g ai/ha): 100 | Pre-emerge Herbicidal Activity DIGSA ([7]; 63 g ai/ha): 0 | Pre-emerge Herbicidal Activity DIGSA ([7]; 250 g ai/ha): 0 | Pre-emerge Herbicidal Activity CASOB ([8]; 63 g ai/ha): 0 | Pre-emerge Herbicidal Activity CASOB ([8]; 250 g ai/ha): 0 | Pre-emerge Herbicidal Activity SETVI ([9]; 63 g ai/ha): 20 | Pre-emerge Herbicidal Activity SETVI ([9]; 250 g ai/ha): 60 | Pre-emerge Herbicidal Activity ECHCG ([10]; 63 g ai/ha): 0 | Pre-emerge Herbicidal Activity ECHCG ([10]; 250 g ai/ha): 0 | Pre-emerge Herbicidal Activity SORHA ([11]; 63 g ai/ha): 0 | Pre-emerge Herbicidal Activity SORHA ([11]; 250 g ai/ha): 0 | Pre-emerge Herbicidal Activity ABUTH ([12]; 63 g ai/ha): 20 | Pre-emerge Herbicidal Activity ABUTH ([12]; 250 g ai/ha): 60 | phytotoxicity rating AMARE ([13]; 63 g ai/ha, rating scale 0-100 (0 no damage, 100 complete death)): 80 | phytotoxicity rating AMARE ([13]; 250 g ai/ha, rating scale 0-100): 100 | phytotoxicity rating IPOHE ([14]; 63 g ai/ha): 60 | phytotoxicity rating IPOHE ([14]; 250 g ai/ha): 80 | phytotoxicity rating CHEAL ([15]; 63 g ai/ha): 70 | phytotoxicity rating CHEAL ([15]; 250 g ai/ha): 90 | phytotoxicity rating DIGSA ([16]; 63 g ai/ha): 0 | phytotoxicity rating DIGSA ([16]; 250 g ai/ha): 20 | phytotoxicity rating CASOB ([17]; 63 g ai/ha): 50 | phytotoxicity rating CASOB ([17]; 250 g ai/ha): 50 | phytotoxicity rating SETVI ([18]; 63 g ai/ha): 10 | phytotoxicity rating SETVI ([18]; 250 g ai/ha): 30 | phytotoxicity rating ECHCG ([19]; 63 g ai/ha): 0 | phytotoxicity rating ECHCG ([19]; 250 g ai/ha): 20 | phytotoxicity rating SORHA ([20]; 63 g ai/ha): 0 | phytotoxicity rating SORHA ([20]; 250 g ai/ha): 10 | phytotoxicity rating ABUTH ([21]; 63 g ai/ha): 100 | phytotoxicity rating ABUTH ([21]; 250 g ai/ha): 100 | Pre-emerge Herbicidal Activity AMARE ([22]; 63 g ai/ha): 40 | Pre-emerge Herbicidal Activity AMARE ([22]; 250 g ai/ha): 70
